Key:
human P2X3 receptor [1] = molecular target: T1, human P2X3 receptor (Homo sapiens, UniProt P56373); assay: Intracellular calcium measurement to assess antagonist activity at human P2X3 receptors (hP2X3 FLIPR); type: cell-based; parameters: expressed in transfected cells; host or cells: human astrocytoma 1321N1 (1312N1 [sic]); details: head prints (1321N1); read-out: 1) hP2X3 IC50 [nM] (1321N1)
T1 sequence (P56373 1-397): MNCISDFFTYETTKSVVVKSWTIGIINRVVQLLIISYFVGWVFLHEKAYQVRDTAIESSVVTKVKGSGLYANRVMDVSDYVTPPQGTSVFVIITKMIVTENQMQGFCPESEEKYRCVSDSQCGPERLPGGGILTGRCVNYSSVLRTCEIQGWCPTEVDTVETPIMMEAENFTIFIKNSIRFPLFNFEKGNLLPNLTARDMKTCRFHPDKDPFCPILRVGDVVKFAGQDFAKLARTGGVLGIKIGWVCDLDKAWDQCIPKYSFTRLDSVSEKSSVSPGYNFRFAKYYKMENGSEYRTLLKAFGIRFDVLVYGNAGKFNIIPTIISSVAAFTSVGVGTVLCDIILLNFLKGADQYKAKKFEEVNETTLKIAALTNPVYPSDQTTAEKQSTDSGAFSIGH
Description: 1) Intracellular Calcium Measurement to Assess Antagonist Activity at Human P2X3 Receptors (hP2X3 FLIPR)
A fluorescent imaging plate reader (FLEX/FLIPR station; Molecular Devices) was used to monitor intracellular calcium levels using the calcium-chelating dye Fluo-4 (Molecular Probes). The excitation and emission wavelengths used to monitor fluorescence were 470-495 nm and 515-575 nm, respectively. The human astrocytoma […] cells expressing purinergic receptors P2X3 (human) were plated at a density of 15,000 cells/well in collagen—coated 384-well plates approximately 20 hours before beginning the assay. […] The dye supernatant was removed and replaced with 45 μl probenecid buffer (Hank's balanced salt solution, 20 mM HEPES, 0.5 mM CaCl2, 0.5 mM MgCl2, 0.1% BSA, 5 mM probenecid, 10 mM D-glucose monohydrate, pH=7.4). The test compounds were added in a volume of 5 μl and allowed to incubate for 30 min at 37° C. The final assay DMSO concentration is 1%. […] The fluorescence was measured for an interval of 90 sec at 2 sec intervals and analyzed based on the increase in peak relative fluorescence units (RFU) compared to the basal fluorescence. Peak fluorescence was used to determine the response to agonist obtained at each concentration of test compound by the following equation: Response=100*(RFU(test compound)−RFU(control))/(RFU(DMSO)−RFU(control))
The Examples were tested in triplicates per plate and mean values were plotted in Excel XLFit to determine IC50 values at the human P2X3 and human P2X2/3 receptors, percentage of maximal inhibition and the Hill coefficients.

human P2X2/3 receptors = molecular target: T2, human P2X2/3 receptors (Homo sapiens, UniProt P56373+Q9UBL9); assay: Intracellular calcium measurement, antagonist activity at human P2X2/3 receptors (hP2X23 1321N1), Fluo8; type: cell-based; details: for IC50: column 4); 1321N1 cells, human P2X2/3, Fluo8, agonist ATP at EC50; read-out: 4) hP2X2/3 IC50 [nM] (1321N1); for hP2X23/hP2X3* Selectivity (1321N1): ratio of column 4) hP2X2/3 to column 3) hP2X3, 1321N1
T2 construct: expressed in transfected cells; host or cells: human astrocytoma 1321N1 (1312N1 [sic])
T2 sequence (P56373 1-397): T1 sequence (P56373 1-397)
T2 sequence (Q9UBL9 1-471): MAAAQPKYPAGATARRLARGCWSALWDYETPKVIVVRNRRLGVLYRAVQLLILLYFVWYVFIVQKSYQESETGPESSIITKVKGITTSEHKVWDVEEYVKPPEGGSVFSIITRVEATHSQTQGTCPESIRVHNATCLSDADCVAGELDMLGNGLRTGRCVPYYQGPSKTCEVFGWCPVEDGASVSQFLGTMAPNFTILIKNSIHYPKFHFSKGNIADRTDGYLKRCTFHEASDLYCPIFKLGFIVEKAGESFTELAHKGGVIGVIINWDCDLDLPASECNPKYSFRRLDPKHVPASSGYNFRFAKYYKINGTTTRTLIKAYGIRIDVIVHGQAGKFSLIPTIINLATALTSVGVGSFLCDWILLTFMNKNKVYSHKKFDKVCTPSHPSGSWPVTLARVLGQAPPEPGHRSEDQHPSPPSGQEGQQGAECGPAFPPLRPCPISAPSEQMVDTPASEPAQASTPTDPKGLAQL
Outline: (§1)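 Inhibition of ATP-triggered Ca2+ transients is measured in 1321N1 cells expressing P2X3 homotrimers or P2X2/3 heterotrimers.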

human P2X3 receptor [2] = molecular target: T1, human P2X3 receptor; assay: Intracellular calcium measurement, antagonist activity at human P2X3 receptors (hP2X3 1321N1), Fluo8; type: cell-based; parameters: expressed in transfected cells; host or cells: human astrocytoma 1321N1 (1312N1 [sic]); details: column 3); 1321N1 cells, human P2X3, Fluo8, agonist ATP at EC50
Outline: as §1

human P2X3 receptor [3] = molecular target: T1, human P2X3 receptor; assay: Intracellular calcium measurement to assess antagonist activity at human P2X3 receptors (hP2X3 CHO), photina luminescence; type: cell-based; parameters: expressed in transfected cells; host or cells: Chinese hamster ovary (CHO) cells; details: column 2), CHO cells, agonist α,β-methylene-ATP at EC50
Outline: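 CHO cells stably expressing human P2X3 and mitochondrial photina, plated the day before at 30 °C, then loaded 3 h at 37 °C in 2 mM Ca-tyrode buffer with 5 μg/ml coelenterazine. Agonist-evoked calcium luminescence read immediately; inhibition seen as signal decrease.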

[4] = clinical trials; affecting taste sensation via the tongue; cited from earlier work

Compound	IC50 (human P2X3 receptor [1])	IC50 (human P2X2/3 receptors)	hP2X23/hP2X3* Selectivity (1321N1) (human P2X2/3 receptors)	IC50 (human P2X3 receptor [2])	IC50 (human P2X3 receptor [3])	taste disturbances in treated subjects [4]
COCCN1Cc2c(n(CC(=O)Nc3ccc(F)cn3)c3cc(C(C)(C)C)nn3c2=O)C1=O [Example 49]	23 nM	3900 nM	119	33 nM	62 nM	–
CN(C)CCN1Cc2c(n(CC(=O)Nc3ccc(F)cn3)c3cc(C(C)(C)C)nn3c2=O)C1=O [Example 139, 2-{2-tert-butyl-6-[2-(dimethylamino)ethyl]-5,8-dioxo-5,6,7,8-tetrahydro-4H-pyrazolo[1,5-a]pyrrolo[3,4-d]pyrimidin-4-yl}-N-(5-fluoropyridin-2-yl)acetamide]	237 nM	> 32000 nM	>80	400 nM	420 nM	–
Cc1cc2n(CC(=O)Nc3ccc(F)cn3)c3c(c(=O)n2n1)CN([C@H](C)C1CC1)C3=O [Example 55]	104 nM	10800 nM	93	117 nM	195 nM	–
CC[C@@H](C)N1Cc2c(n(CC(=O)Nc3ccc(C)cn3)c3cc(C(F)(F)F)nn3c2=O)C1=O [Example 16]	100 nM	> 100000 nM	>6	> 16600 nM	320 nM	–
CC(C)(C)c1cc2n(CC(=O)Nc3ccc(Cl)cn3)c3c(c(=O)n2n1)CN(C1CCC1)C3=O [Example 18]	69 nM	2500 nM	20	124 nM	106 nM	–
CC(C)N1Cc2c(n(CC(=O)Nc3ccc(F)cn3)c3ccnn3c2=O)C1=O [Example 45]	377 nM	> 32000 nM	>86	370 nM	394 nM	–
COC[C@H](C)N1Cc2c(n(CC(=O)Nc3ccc(F)cn3)c3cc(C(C)C)nn3c2=O)C1=O [Example 39]	14 nM	7550 nM	308	25 nM	29 nM	–
COc1cc(C(C)C)c(Oc2cnc(N)nc2N)cc1S(N)(=O)=O [AF-219]	–	–	–	–	–	leads to taste disturbances
COC[C@H](C)N1Cc2c(n(CC(=O)Nc3ccc(F)cn3)c3cc(C4CCOCC4)nn3c2=O)C1=O [Example 40]	20 nM	> 23500 nM	>758	31 nM	26 nM	–
CCc1cc2n(CC(=O)Nc3ccc(F)cn3)c3c(c(=O)n2n1)CN(C(C)C)C3=O [Example 24]	35 nM	10000 nM	132	76 nM	60 nM	–
CC(C)N1Cc2c(n(CC(=O)Nc3ccc(Cl)cn3)c3cc(C(F)(F)F)nn3c2=O)C1=O [Example 29]	62 nM	4150 nM	115	36 nM	41 nM	–
CC(C)(O)CN1Cc2c(n(CC(=O)Nc3ccc(F)cn3)c3cc(C(C)(C)C)nn3c2=O)C1=O [Example 32]	139 nM	12000 nM	71	170 nM	121 nM	–

Reference: patent US11319324B2, “Pyrazolo-pyrrolo-pyrimidine-dione derivatives as P2X3 inhibitors” (Bayer Aktiengesellschaft, priority 2017, dated 2022)
